Measurements: patent US9169254B2, “Spiroimidazolone derivative” (Chugai Seiyaku Kabushiki Kaisha, priority 2009, dated 2015)

molecular target: T1, human PTH1 receptor (Homo sapiens, UniProt Q03431); experiment: In vitro cAMP signal activity in HKRK-B7 cells (LLC-PK1 cells overexpressing the human PTH1 receptor); type: cell-based; conditions: HKRK-B7 cells; compound at 1×10^−3 M; […]; 0.1 µM
T1 sequence (Q03431 27-593): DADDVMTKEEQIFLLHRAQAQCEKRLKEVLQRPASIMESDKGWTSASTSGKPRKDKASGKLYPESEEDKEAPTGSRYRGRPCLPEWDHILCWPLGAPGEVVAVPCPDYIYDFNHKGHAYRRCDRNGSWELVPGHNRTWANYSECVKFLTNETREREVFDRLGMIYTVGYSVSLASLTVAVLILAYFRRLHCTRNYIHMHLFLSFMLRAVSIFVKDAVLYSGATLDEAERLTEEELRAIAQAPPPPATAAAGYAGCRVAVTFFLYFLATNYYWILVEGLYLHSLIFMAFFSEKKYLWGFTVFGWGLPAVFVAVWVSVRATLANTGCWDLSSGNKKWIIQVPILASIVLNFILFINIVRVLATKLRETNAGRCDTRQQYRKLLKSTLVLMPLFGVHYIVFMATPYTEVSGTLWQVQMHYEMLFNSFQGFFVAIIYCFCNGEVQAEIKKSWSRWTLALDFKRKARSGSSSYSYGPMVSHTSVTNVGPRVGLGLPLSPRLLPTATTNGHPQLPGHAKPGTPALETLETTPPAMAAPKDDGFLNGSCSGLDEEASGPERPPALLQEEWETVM

Row | SMILES | cAMP production activity (%)
1 | CC(=O)N(c1ccc(/C=C/S(=O)(=O)N2CCC3(CC2)N=C(c2cccc(OC(F)(F)F)c2)NC3=O)c(C)c1)C1CCN(C(=O)OC(C)(C)C)CC1 [Compound 604, 4-[acetyl-(3-methyl-4-{(E)-2-[4-oxo-2-(3-trifluoromethoxy-phenyl)-1,3,8-triaza-spiro[4.5]dec-1-ene-8-sulfonyl]-vinyl}-phenyl)-amino]-piperidine-1-carboxylic acid tert-butyl ester] | 21%

same assay, conditions: HKRK-B7 cells; compound at 1×10^−3 M; cAMP produced as percentage of that produced by hPTH(1-34) at 100 nM

Row | SMILES | cAMP production activity (%)
2 | CC(C)(C)[C@H]1CC[C@H](C2=NC3(CCN(S(=O)(=O)c4cccc(Cl)c4)CC3)C(=O)N2)CC1 [Compound 26, 2-(4-tert-butyl-cyclohexyl)-8-(3-chloro-benzenesulfonyl)-1,3,8-triaza-spiro[4.5]dec-1-en-4-one] | 36%
3 | Cc1cc2ccc1CCS(=O)(=O)N1CCC3(CC1)N=C(NC3=O)c1cc(cc(C(F)(F)F)c1)OCCCCCNC(=O)CN(C)C2=O [Compound 1449] | 18%
4 | Cc1cc(CN)cc(C)c1/C=C/S(=O)(=O)N1CCC2(CC1)N=C(C1CCC(C)CC1)NC2=O (stereo not shown) [Compound 1291, 8-[(E)-2-(4-aminomethyl-2,6-dimethyl-phenyl)-ethenesulfonyl]-2-(4-methyl-cyclohexyl)-1,3,8-triaza-spiro[4.5]dec-1-en-4-one] | 48%
5 | Cc1cc(NC[C@H](O)CO)ccc1CCS(=O)(=O)N1CCC2(CC1)N=C(c1ccc(Cl)cc1)NC2=O [Compound 158, 2-(4-chloro-phenyl)-8-{2-[4-((S)-2,3-dihydroxy-propylamino)-2-methyl-phenyl]-ethanesulfonyl}-1,3,8-triaza-spiro[4.5]dec-1-en-4-one] | 62%
6 | COc1c(N(C)C(N)=O)cc(C)c(CCS(=O)(=O)N2CCC3(CC2)N=C([C@H]2CC[C@H](C)CC2)NC3=O)c1C [Compound 684, 1-(2-methoxy-3,5-dimethyl-4-{2-[2-(4-methyl-cyclohexyl)-4-oxo-1,3,8-triaza-spiro[4.5]dec-1-ene-8-sulfonyl]-ethyl}-phenyl)-1-methyl-urea] | 101%
7 | C=CCCCCC1=NC2(CCN([S@TB17](=O)(=O)/C=C/c3c(C)cc(N(C)C(N)=O)cc3C)CC2)C(=O)N1 [Compound 1119, 1-{4-[(E)-2-(2-hex-5-enyl-4-oxo-1,3,8-triaza-spiro[4.5]dec-1-ene-8-sulfonyl)-vinyl]-3,5-dimethyl-phenyl}-1-methyl-urea] | 136%
8 | CONC(=O)Cc1ccc(/C=C/S(=O)(=O)N2CCC3(CC2)N=C(C2CCC(C)CC2)NC3=O)c(C)c1 (stereo not shown) [Compound 988, N-methoxy-2-(3-methyl-4-{(E)-2-[2-(4-methyl-cyclohexyl)-4-oxo-1,3,8-triaza-spiro[4.5]dec-1-ene-8-sulfonyl]-vinyl}-phenyl)-acetamide] | 50%
9 | CC[C@H]1CC[C@H](C2=NC3(CCN(S(=O)(=O)/C=C/c4ccc(N5C(=O)NC(=O)C5(C)C)cc4C)CC3)C(=O)N2)CC1 [Compound 626, 1-(4-{(E)-2-[2-(4-ethyl-cyclohexyl)-4-oxo-1,3,8-triaza-spiro[4.5]dec-1-ene-8-sulfonyl]-vinyl}-3-methyl-phenyl)-5,5-dimethyl-imidazolidine-2,4-dione] | 53%
10 | Cc1cc(C(=O)N2CCC(C)(O)CC2)cc(C)c1/C=C/S(=O)(=O)N1CCC2(CC1)N=C(c1ccc3c(c1)OC(F)(F)C(F)(F)O3)NC2=O [Compound 1212, 8-{(E)-2-[4-(4-hydroxy-4-methyl-piperidine-1-carbonyl)-2,6-dimethyl-phenyl]-ethenesulfonyl}-2-(2,2,3,3-tetrafluoro-2,3-dihydro-benzo[1,4]dioxin-6-yl)-1,3,8-triaza-spiro[4.5]dec-1-en-4-one] | 96%
11 | CC(=O)Nc1ccc(CCS(=O)(=O)N2CCC3(CC2)N=C([C@H]2CC[C@H](CCC(F)F)CC2)NC3=O)c(C)c1 [Compound 955, N-[4-(2-{2-[4-(3,3-Difluoro-propyl)-cyclohexyl]-4-oxo-1,3,8-triaza-spiro[4.5]dec-1-ene-8-sulfonyl}-ethyl)-3-methyl-phenyl]-acetamide] | 79%
12 | CCCCCCCCCC1=NC2(CCN(S(=O)(=O)CCc3ccc(N4C(=O)CC[C@H]4CO)cc3C)CC2)C(=O)N1 [Compound 670, 8-{2-[4-((S)-2-Hydroxymethyl-5-oxo-pyrrolidin-1-yl)-2-methyl-phenyl]-ethanesulfonyl}-2-nonyl-1,3,8-triaza-spiro[4.5]dec-1-en-4-one] | 123%
13 | CC(=O)N(C)Cc1cc(C)c(CCS(=O)(=O)N2CCC3(CC2)N=C(C2CCC(CCC(F)(F)F)CC2)NC3=O)c(C)c1 (stereo not shown) [Compound 784, N-[3,5-dimethyl-4-(2-{4-oxo-2-[4-(3,3,3-trifluoro-propyl)-cyclohexyl]-1,3,8-triaza-spiro[4.5]dec-1-ene-8-sulfonyl}-ethyl)-benzyl]-N-methyl-acetamide] | 84%
14 | Cc1cc(N2CCC(=O)NC2=O)cc(C)c1CCS(=O)(=O)N1CCC2(CC1)N=C(C1CCC(C)CC1)NC2=O (stereo not shown) [Compound 786, 1-(3,5-dimethyl-4-{2-[2-(4-methyl-cyclohexyl)-4-oxo-1,3,8-triaza-spiro[4.5]dec-1-ene-8-sulfonyl]-ethyl}-phenyl)-dihydro-pyrimidine-2,4-dione] | 57%
15 | O=C1NC(c2cccc(C(F)(F)F)c2)=NC12CCN(S(=O)(=O)/C=C/c1cccc3c1ccn3C[C@H](O)CO)CC2 [Compound 524, 8-{(E)-2-[1-((S)-2,3-dihydroxy-propyl)-1H-indol-4-yl]-ethenesulfonyl}-2-(3-trifluoromethyl-phenyl)-1,3,8-triaza-spiro[4.5]dec-1-en-4-one] | 90%
16 | Cc1cc(CN(C)C(=O)OC(C)(C)C)ccc1CCS(=O)(=O)N1CCC2(CC1)N=C(C1CCCCC1)NC2=O [Compound 673, {4-[2-(2-cyclohexyl-4-oxo-1,3,8-triaza-spiro[4.5]dec-1-ene-8-sulfonyl)-ethyl]-3-methyl-benzyl}-methyl-carbamic acid tert-butyl ester] | 27%
17 | CN(C)C(=O)CNc1ccc(CCS(=O)(=O)N2CCC3(CC2)N=C(C2CCCCC2)NC3=O)c(C(F)(F)F)c1 [Compound 270, 2-{4-[2-(2-cyclohexyl-4-oxo-1,3,8-triaza-spiro[4.5]dec-1-ene-8-sulfonyl)-ethyl]-3-trifluoromethyl-phenylamino}-N,N-dimethyl-acetamide] | 55%
18 | Cc1cc(S(N)(=O)=O)ccc1CCS(=O)(=O)N1CCC2(CC1)N=C(c1cccc(C(F)(F)F)c1)NC2=O [Compound 291, 3-methyl-4-{2-[4-oxo-2-(3-trifluoromethyl-phenyl)-1,3,8-triaza-spiro[4.5]dec-1-ene-8-sulfonyl]-ethyl}-benzenesulfonamide] | 66%
19 | Cc1cc(C(=O)N(C)C)ccc1CCS(=O)(=O)N1CCC2(CC1)N=C(c1ccc(Cl)c(Cl)c1)NC2=O [Compound 98, 4-{2-[2-(3,4-dichloro-phenyl)-4-oxo-1,3,8-triaza-spiro[4.5]dec-1-ene-8-sulfonyl]-ethyl}-3,N,N-trimethyl-benzamide] | 75%
